Data: patent US20070026080A1, “Manufacturing process for tigecycline” (Wyeth, priority 2005, published 2007)
Values joined by “and” are separate entries in the source; they are usually repeats but may differ in a detail not shown here. Equal entries are not always repeated.

Test: Strength and degradation profile of tigecycline 20 mg/mL bulk solutions by reversed phase HPLC (effect of temperature, time, pH, dissolved oxygen; Runs A to O)
Format: physicochemical
Conditions: 20 mg/mL
Protocol: The contents of the sample vials are dissolved in diluent. The sample solution is diluted, if necessary, and chromatographed on a reversed phase column using gradient elution. Impurities are determined by comparing the impurity peak areas in the sample preparation chromatogram to the average area of tigecycline peaks in the standard preparation chromatograms obtained concomitantly.
Chromatographic Column—Length about 15 cm, inside diameter about 4.6 mm, packed with Inertsil ODS2, 5 μm size particles or equivalent.
Detector—Ultraviolet spectrophotometric detector capable of operating at 248 nm with a sensitivity of about 0.5 absorbance units full scale.
The results of additional studies to investigate the effect of processing parameters such as temperature, time, and dissolved oxygen content on the purity profile of tigecycline solutions using the following materials, methods and procedures are presented in Tables A to O.
The experiments were run in plastic glove bags under normal laboratory light conditions. Plastic glove boxes will be used to control the headspace of the beakers. The batch size was 200 mL. • 1. Prepare the glove bag with a mixture of nitrogen and air to achieve an oxygen level in the solution as per the design. • 2. Place the jacketed beaker on the magnetic stirrer. Connect it to the cooler. Set the cooler to the desired set point. • 3. Add 200 mL of SWFI in to the beaker. Allow equilibrating. Measure the temperature and oxygen content. When it reaches the desired condition, add accurately weighed API and mix until dissolved. If necessary use spatula to aid dissolution. For pH adjustments, use 4 mL of either 0.1N NaOH or 0.1N HCl and 196 mL of WFI for manufacture. • 4. After complete dissolution, Transfer about 5.5 mL of Solution in vials and stopper them. These vials will be stoppered at the appropriate headspace conditions. Place the vials in appropriate temperature conditions. • 5. Sample the vials at 1, 4, 8, 10, 12 and 24 hours. Send the samples for analysis. Freeze the 10, 12 and 24 samples at −20° C. for analysis the following day. • 6. Measure pH and record color of the solution at each time point. Results
The 1-hour samples were taken directly from the beakers. Samples for later time points were collected in stoppered vials processed in the atmosphere of the bag in order to simulate the headspace conditions then placed in water baths or refrigerator to maintain there respective temperature conditions. This was done to maintain safety in the lab. Disposable plastic glove bags require constant flow of a mixture of nitrogen and air to maintain headspace oxygen level that will result in the desired dissolved oxygen (DO) content in the sample. The pH of samples was measured at each sample points.
Strength and degradation profile was analyzed by HPLC as described above. […] Degradation was slightly higher at higher temperature condition.

[1] = Run #A, 2° C., pH 8.2, Oxygen 2.0 mg/L, hours 1,4,8,10,12,24 at r6-r11
[2] = Run #A, 2° C., pH 8.2, Oxygen 2.0 mg/L, hours 1,4,8,10,12,24 at r17-r22
[3] = Run #B, 8° C., pH 8.2, Oxygen 2.0 mg/L, hours 1,4,8,10,12,24 at r6-r11, 1 hours
[4] = Run #B, 8° C., pH 8.2, Oxygen 2.0 mg/L, hours 1,4,8,10,12,24 at r6-r11, 4 hours
[5] = Run #B, 8° C., pH 8.2, Oxygen 2.0 mg/L, hours 1,4,8,10,12,24 at r6-r11, 8 hours
[6] = Run #B, 8° C., pH 8.2, Oxygen 2.0 mg/L, hours 1,4,8,10,12,24 at r6-r11, 10 hours
[7] = Run #B, 8° C., pH 8.2, Oxygen 2.0 mg/L, hours 1,4,8,10,12,24 at r6-r11, 12 hours
[8] = Run #B, 8° C., pH 8.2, Oxygen 2.0 mg/L, hours 1,4,8,10,12,24 at r6-r11, 24 hours
[9] = Run #B, 8° C., pH 8.2, Oxygen 2.0 mg/L, hours 1,4,8,10,12,24 at r17-r22, 1 hours
[10] = Run #B, 8° C., pH 8.2, Oxygen 2.0 mg/L, hours 1,4,8,10,12,24 at r17-r22, 4 hours
[11] = Run #B, 8° C., pH 8.2, Oxygen 2.0 mg/L, hours 1,4,8,10,12,24 at r17-r22, 8 hours
[12] = Run #B, 8° C., pH 8.2, Oxygen 2.0 mg/L, hours 1,4,8,10,12,24 at r17-r22, 10 hours
[13] = Run #B, 8° C., pH 8.2, Oxygen 2.0 mg/L, hours 1,4,8,10,12,24 at r17-r22, 12 hours
[14] = Run #B, 8° C., pH 8.2, Oxygen 2.0 mg/L, hours 1,4,8,10,12,24 at r17-r22, 24 hours
[15] = Run #C, 2° C., pH 7.7, Oxygen 2 mg/L, hours 1,4,8,10,12,24 at r6-r11
[16] = Run #C, 2° C., pH 7.7, Oxygen 2 mg/L, hours 1,4,8,10,12,24 at r6-r11, 1 h hold time
[17] = Run #C, 2° C., pH 7.7, Oxygen 2 mg/L, hours 1,4,8,10,12,24 at r6-r11, 4 h hold time
[18] = Run #C, 2° C., pH 7.7, Oxygen 2 mg/L, hours 1,4,8,10,12,24 at r6-r11, 10 h hold time
[19] = Run #C, 2° C., pH 7.7, Oxygen 2 mg/L, hours 1,4,8,10,12,24 at r6-r11, 12 h hold time
[20] = Run #C, 2° C., pH 7.7, Oxygen 2 mg/L, hours 1,4,8,10,12,24 at r6-r11, 24 h hold time
[21] = Run #C, 2° C., pH 7.7, Oxygen 2 mg/L, hours 1,4,8,10,12,24 at r17-r22, 1 h hold time
[22] = Run #C, 2° C., pH 7.7, Oxygen 2 mg/L, hours 1,4,8,10,12,24 at r17-r22, 4 h hold time
[23] = Run #C, 2° C., pH 7.7, Oxygen 2 mg/L, hours 1,4,8,10,12,24 at r17-r22, 8 h hold time
[24] = Run #C, 2° C., pH 7.7, Oxygen 2 mg/L, hours 1,4,8,10,12,24 at r17-r22, 10 h hold time
[25] = Run #C, 2° C., pH 7.7, Oxygen 2 mg/L, hours 1,4,8,10,12,24 at r17-r22, 24 h hold time
[26] = Run #D, 8° C., pH 7.7, Oxygen 2.0 mg/L, hours 1,4,8,10,12,24 at r6-r11, after 1 hours

SMILES: CN(C)c1cc(NC(=O)CNC(C)(C)C)c(O)c2c1C[C@H]1C[C@H]3[C@H](N(C)C)C(O)=C(C(N)=O)C(=O)[C@@]3(O)C(O)=C1C2=O [Tigecycline]
- RRT 0.58 [1]: 0.06% and 0.07%
- RRT 0.64 9-Amino [1]: BRL (BRL means below reporting limit (meaning less than 0.05% of tigecycline peak))
- RRT 0.74 Epimer [1]: 0.26% and 0.23% and 0.18% and 0.20% and 0.19% and 0.25%
- Strength [1]: 19.901 mg/mL and 19.504 mg/mL and 19.639 mg/mL and 19.610 mg/mL and 19.473 mg/mL and 19.806 mg/mL
- RRT 1.12 [2]: BRL (BRL means below reporting limit (meaning less than 0.05% of tigecycline peak))
- RRT 1.45 [2]: 0.06% and 0.08% and 0.07% and 0.09%
- RRT 1.58 [2]: BRL (BRL means below reporting limit (meaning less than 0.05% of tigecycline peak))
- RRT 1.64 Mino [2]: 0.10% and 0.11%
- RRT 1.85 MW = 597 [2]: 0.06% and 0.08% and 0.07% and 0.14%
- Total [2]: 0.47% and 0.76% and 0.86% and 1.26% and 1.40% and 1.86%
- RRT 0.55 MW = 583 [3]: 0.11%
- Strength [3]: 19.149 mg/mL
- RRT 0.55 MW = 583 [4]: 0.20%
- Strength [4]: 19.046 mg/mL
- RRT 0.55 MW = 583 [5]: 0.27%
- Strength [5]: 18.795 mg/mL
- RRT 0.55 MW = 583 [6]: 0.32%
- Strength [6]: 19.144 mg/mL
- RRT 0.55 MW = 583 [7]: 0.29%
- Strength [7]: 18.668 mg/mL
- RRT 0.55 MW = 583 [8]: 0.42%
- Strength [8]: 17.784 mg/mL
- RRT 0.74 Epimer [9]: 0.20%
- RRT 1.64 Mino [9]: 0.10%
- RRT 1.67 MW = 556 [9]: 0.14%
- RRT 1.85 MW = 597 [9]: 0.08%
- Total [9]: 0.75%
- RRT 0.74 Epimer [10]: 0.19%
- RRT 1.64 Mino [10]: 0.05%
- RRT 1.67 MW = 556 [10]: 0.25%
- RRT 1.85 MW = 597 [10]: 0.07%
- Total [10]: 1.12%
- RRT 0.74 Epimer [11]: 0.23%
- RRT 1.64 Mino [11]: 0.07%
- RRT 1.67 MW = 556 [11]: 0.35%
- Total [11]: 1.85%
- RRT 0.74 Epimer [12]: 0.22%
- RRT 1.64 Mino [12]: 0.11%
- RRT 1.67 MW = 556 [12]: 0.29%
- RRT 1.85 MW = 597 [12]: 0.09%
- Total [12]: 2.38%
- RRT 0.74 Epimer [13]: 0.24%
- RRT 1.64 Mino [13]: 0.09%
- RRT 1.67 MW = 556 [13]: 0.23%
- Total [13]: 2.61%
- RRT 1.67 MW = 556 [14]: 0.50%
- RRT 1.85 MW = 597 [14]: 0.11%
- Total [14]: 5.36%
- RRT 0.12 MW = 633 [15]: BRL (BRL means below reporting limit (meaning less than 0.05% of tigecycline peak))
- RRT 0.64 9-Amino [15]: BRL (BRL means below reporting limit (meaning less than 0.05% of tigecycline peak))
- RRT 0.58 [16]: 0.08%
- RRT 0.74 Epimer [16]: 0.20%
- Strength [16]: 19.339 mg/mL
- RRT 0.58 [17]: 0.06%
- RRT 0.74 Epimer [17]: 0.19%
- Strength [17]: 19.246 mg/mL
- Strength (Run #C, 2° C., pH 7.7, Oxygen 2 mg/L, hours 1,4,8,10,12,24 at r6-r11, 8 h hold time): 19.031 mg/mL
- RRT 0.74 Epimer [18]: 0.27%
- Strength [18]: 19.415 mg/mL
- RRT 0.58 [19]: 0.07%
- RRT 0.74 Epimer [19]: 0.30%
- Strength [19]: 19.048 mg/mL
- RRT 0.58 [20]: 0.05%
- RRT 0.74 Epimer [20]: 0.21%
- Strength [20]: 19.226 mg/mL
- RRT 1.12 (Run #C, 2° C., pH 7.7, Oxygen 2 mg/L, hours 1,4,8,10,12,24 at r17-r22): BRL (BRL means below reporting limit (meaning less than 0.05% of tigecycline peak))
- RRT 1.45 [21]: 0.07%
- RRT 1.64 Mino [21]: 0.10%
- RRT 1.85 MW = 597 [21]: 0.06%
- Total [21]: 0.59%
- RRT 1.64 Mino [22]: 0.09%
- Total [22]: 0.60%
- RRT 1.45 [23]: 0.13%
- RRT 1.64 Mino [23]: 0.11%
- RRT 1.85 MW = 597 [23]: 0.07%
- Total [23]: 0.87%
- RRT 1.85 MW = 597 [24]: 0.08%
- Total [24]: 1.20%
- Total (Run #C, 2° C., pH 7.7, Oxygen 2 mg/L, hours 1,4,8,10,12,24 at r17-r22, 12 h hold time): 1.38%
- RRT 1.45 [25]: 0.06%
- Total [25]: 1.52%
- RRT 0.64 9-Amino (Run #D, 8° C., pH 7.7, Oxygen 2.0 mg/L, hours 1,4,8,10,12,24 at r6-r11): BRL (BRL means below reporting limit (meaning less than 0.05% of tigecycline peak))
- RRT 0.55 MW = 583 [26]: 0.08%
- RRT 0.74 Epimer [26]: 0.19%
